The values that follow come from ChEMBL document CHEMBL3612016, “1,4-Disubstituted aromatic piperazines with high 5-HT2A/D2 selectivity: Quantitative structure-selectivity investigations, docking, synthesis and biological evaluation” (Bioorg Med Chem, 2015).

Assay [1] has as its target 5-hydroxytryptamine receptor 2A (Homo sapiens, UniProt P28223). As to the kind of experiment: biochemical. Format: cell-based, HEK293.
Description: Displacement of [3H]ketanserin from human 5-HT2A receptor expressed in HEK293 cell membranes by radioligand competition binding assay
In assay [2] the target is T1, D(2) dopamine receptor (Homo sapiens, UniProt P14416). As to the kind of experiment: biochemical. The assay is classed as cell-based, CHO.
Description: Displacement of [3H]spiperone from human dopamine D2L receptor expressed in CHO cell membranes by radioligand competition binding assay
The target in a further assay is D(1A) dopamine receptor (Homo sapiens, UniProt P21728). As to the kind of experiment: biochemical. The assay is classed as cell-based, CHO.
Assay [3] concerns the target T1, D(2) dopamine receptor. Kind of assay: biochemical. The assay is classed as cell-based, CHO. The source holds these as a separate data set.
Description: Displacement of [3H]spiperone from human dopamine D2S receptor expressed in CHO cell membranes by radioligand competition binding assay
Another assay concerns the target D(3) dopamine receptor (Homo sapiens, UniProt P35462). As to the kind of experiment: biochemical. Format: cell-based, CHO.
In a further assay the target is T2, D(4) dopamine receptor (Homo sapiens, UniProt P21917).
T2 sequence (P21917 whole entry): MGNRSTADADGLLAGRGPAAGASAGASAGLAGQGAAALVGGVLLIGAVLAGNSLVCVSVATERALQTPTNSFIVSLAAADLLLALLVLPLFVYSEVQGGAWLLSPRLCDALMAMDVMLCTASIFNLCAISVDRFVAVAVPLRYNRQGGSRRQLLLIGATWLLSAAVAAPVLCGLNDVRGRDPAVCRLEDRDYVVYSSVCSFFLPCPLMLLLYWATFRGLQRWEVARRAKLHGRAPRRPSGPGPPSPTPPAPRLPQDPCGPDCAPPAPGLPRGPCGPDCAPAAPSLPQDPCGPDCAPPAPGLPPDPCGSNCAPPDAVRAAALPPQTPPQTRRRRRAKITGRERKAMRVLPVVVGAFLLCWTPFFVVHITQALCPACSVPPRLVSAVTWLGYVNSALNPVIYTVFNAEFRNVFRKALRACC
Kind of assay: biochemical. Format: cell-based, CHO.

The target in assay [4] is T1, D(2) dopamine receptor. The assay is classed as functional, cell-based, HEK293.
Assay [5] concerns the target T1, D(2) dopamine receptor. The assay is classed as cell-based. The settings on record: hek293.
Description: Activity at pro-link-tagged D2S-ARMS2PK2 (unknown origin) expressed in HEK293 cells by beta-arrestin-2 recruitment assay
In assay [6] the target is T1, D(2) dopamine receptor.
Description: Activity at dopamine D2S receptor (unknown origin) expressed in HEK293 cell membranes co-expressing Galpha protein subunit Galphai2 by [35S]GTPgammaS binding assay

T1 sequence (P14416 whole entry): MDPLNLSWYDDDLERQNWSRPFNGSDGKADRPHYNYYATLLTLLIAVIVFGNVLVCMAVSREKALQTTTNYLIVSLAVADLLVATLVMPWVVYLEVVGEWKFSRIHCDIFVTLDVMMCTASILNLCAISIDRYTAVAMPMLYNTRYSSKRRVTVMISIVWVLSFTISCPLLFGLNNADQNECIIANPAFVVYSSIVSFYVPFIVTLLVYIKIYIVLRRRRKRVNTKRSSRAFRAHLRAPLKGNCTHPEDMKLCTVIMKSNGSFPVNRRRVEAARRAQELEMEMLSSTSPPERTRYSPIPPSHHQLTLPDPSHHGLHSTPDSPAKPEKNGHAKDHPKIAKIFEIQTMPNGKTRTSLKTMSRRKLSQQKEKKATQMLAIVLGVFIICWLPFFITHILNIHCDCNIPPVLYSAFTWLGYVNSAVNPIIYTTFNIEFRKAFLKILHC
Sequence of D(3) dopamine receptor (P35462 whole entry): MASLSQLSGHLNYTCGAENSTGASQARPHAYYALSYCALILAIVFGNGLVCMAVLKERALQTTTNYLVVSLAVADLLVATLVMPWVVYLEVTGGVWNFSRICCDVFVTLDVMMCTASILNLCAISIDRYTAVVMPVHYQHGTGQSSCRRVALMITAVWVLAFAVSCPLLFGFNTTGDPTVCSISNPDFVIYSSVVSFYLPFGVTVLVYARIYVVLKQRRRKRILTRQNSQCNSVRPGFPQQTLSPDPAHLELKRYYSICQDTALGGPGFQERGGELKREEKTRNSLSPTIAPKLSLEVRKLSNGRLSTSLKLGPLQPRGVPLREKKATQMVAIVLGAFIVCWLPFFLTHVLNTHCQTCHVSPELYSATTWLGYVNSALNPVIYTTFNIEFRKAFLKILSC
Sequence of D(1A) dopamine receptor (P21728 whole entry): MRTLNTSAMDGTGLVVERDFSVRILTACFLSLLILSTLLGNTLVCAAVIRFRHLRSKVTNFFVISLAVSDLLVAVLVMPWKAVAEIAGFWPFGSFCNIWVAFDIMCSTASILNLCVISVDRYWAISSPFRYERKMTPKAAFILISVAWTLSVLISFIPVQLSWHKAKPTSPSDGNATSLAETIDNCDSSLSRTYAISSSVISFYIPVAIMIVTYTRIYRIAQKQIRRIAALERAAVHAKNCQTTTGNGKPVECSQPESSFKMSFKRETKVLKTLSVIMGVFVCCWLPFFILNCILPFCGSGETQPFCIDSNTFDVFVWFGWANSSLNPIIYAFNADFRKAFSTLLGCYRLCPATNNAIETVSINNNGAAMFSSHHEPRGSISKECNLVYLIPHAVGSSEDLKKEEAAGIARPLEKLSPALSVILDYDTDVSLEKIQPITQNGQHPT
Sequence of 5-hydroxytryptamine receptor 2A (P28223 whole entry): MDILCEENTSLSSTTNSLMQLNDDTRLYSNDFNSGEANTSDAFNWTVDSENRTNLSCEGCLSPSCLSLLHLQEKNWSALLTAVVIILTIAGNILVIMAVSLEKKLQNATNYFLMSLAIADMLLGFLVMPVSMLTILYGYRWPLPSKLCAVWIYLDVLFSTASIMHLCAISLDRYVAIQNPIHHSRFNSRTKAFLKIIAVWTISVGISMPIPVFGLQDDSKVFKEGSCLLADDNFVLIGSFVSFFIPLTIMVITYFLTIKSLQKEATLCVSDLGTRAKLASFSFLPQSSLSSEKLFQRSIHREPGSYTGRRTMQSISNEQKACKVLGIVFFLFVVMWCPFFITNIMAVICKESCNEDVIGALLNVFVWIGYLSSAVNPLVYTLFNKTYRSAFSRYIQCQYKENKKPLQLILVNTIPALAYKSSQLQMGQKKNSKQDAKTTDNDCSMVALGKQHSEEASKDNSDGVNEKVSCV
Description for D(1A) dopamine receptor: Displacement of [3H]SCH23990 from human dopamine D1 receptor expressed in CHO cell membranes by radioligand competition binding assay
Description for D(3) dopamine receptor: Displacement of [3H]spiperone from human dopamine D3 receptor expressed in CHO cell membranes by radioligand competition binding assay
Description for D(4) dopamine receptor: Displacement of [3H]spiperone from human dopamine D4.4 receptor expressed in CHO cell membranes by radioligand competition binding assay

Usually Ki stands for a dissociation constant, usually derived from enzyme kinetics or from competition with a known ligand. Low readings indicate tighter binding, high ones weaker binding. Regarding `COc1ccccc1N1CCN(CCCCCNC(=O)c2cnn3ccccc23)CC1`, the affinity in assay [1] corresponds to a Ki of 130 nM.
`COc1ccccc1N1CCN(CCCCCNC(=O)c2cc3ccccn3n2)CC1` displayed a Ki in assay [1] of 220 nM.
Compound `COc1ccccc1N1CCN(CCNC(=O)c2cnn3ccccc23)CC1` displayed an inhibitory constant (Ki) in [1] of 580 nM.
As to `COc1ccccc1N1CCN(CCCCCNC(=O)c2nnn(Cc3ccccc3Br)c2C)CC1`, the inhibition constant Ki at D(2) dopamine receptor [2] is 0.58 nM; in assay [1], 41 nM.
The corresponding values for `CCCc1c(C(=O)NCCCCN2CCN(c3ccccc3OC)CC2)nnn1Cc1ccc(OC)cc1` are 7.1 nM and 29 nM.
The corresponding values for `CCCc1c(C(=O)NCCCCN2CCN(c3ccccc3OC)CC2)nnn1Cc1ccccc1` are 6.4 nM and 110 nM.
As for `COc1ccc(Cn2nnc(C(=O)NCCCCCN3CCN(c4ccccc4OC)CC3)c2C)cc1`, the inhibition constant (Ki) came to 2.7 nM at D(2) dopamine receptor [2] and 93 nM in [1].
The corresponding values for `CCCc1c(C(=O)NCCCCCN2CCN(c3ccccc3OC)CC2)nnn1Cc1ccccc1Br` are 0.91 nM and 62 nM.
The corresponding values for `COc1ccccc1N1CCN(CCCCCNC(=O)c2nnn(Cc3ccccc3)c2C)CC1` are 2.5 nM and 140 nM.
`COc1ccccc1N1CCN(CCCCNC(=O)c2nnn(Cc3ccccc3)c2C)CC1`: the inhibition constant Ki stood at 35 nM on D(2) dopamine receptor [2] and 620 nM in [1].
`COc1ccc(Cn2nnc(C(=O)NCCCCCN3CCN(c4cccc(Cl)c4Cl)CC3)c2C)cc1`: the values for the Ki (on D(2) dopamine receptor [2]; in assay [1]) were 1.5 nM and 3.2 nM, respectively.
Consider `O=C(NCCCCN1CCN(c2cccc(Cl)c2Cl)CC1)c1cc2ccccc2[nH]1`, for which affinity in assay [1] was put at a Ki of 31 nM.
The compound `COc1ccccc1N1CCN(CCCNC(=O)c2cc3ccccn3n2)CC1` gave an inhibition constant Ki in [1] of 560 nM.
As usually defined, the EC50 is the concentration that produces a half-maximal response. Take `COc1ccccc1N1CCN(CCCc2cn(-c3ccn4nccc4c3)nn2)CC1`: the Ki came out at 1700 nM at D(1A) dopamine receptor; 140 nM at D(2) dopamine receptor [2]; 81 nM at D(2) dopamine receptor [3]; 77 nM on D(3) dopamine receptor; 37 nM at D(4) dopamine receptor; 84 nM in assay [1]. Besides, the concentration giving a half-maximal response (EC50) at D(2) dopamine receptor [4] is 977 nM; at D(2) dopamine receptor [5], “Not Active”.
For `O=Cc1cnn2ccc(-n3cc(CCCN4CCN(c5cccc(Cl)c5Cl)CC4)nn3)cc12`, the Ki turned out to be 210 nM on D(1A) dopamine receptor; 6.7 nM on D(2) dopamine receptor [2]; 3.8 nM on D(2) dopamine receptor [3]; 12 nM at D(3) dopamine receptor; 130 nM on D(4) dopamine receptor; 6.9 nM in assay [1]. Also, the EC50 at D(2) dopamine receptor [4] is 191 nM; on D(2) dopamine receptor [5] it was “Not Active”; on D(2) dopamine receptor [6], 955 nM.
Turning to `O=Cc1cnn2ccc(-n3cc(CCCCN4CCN(c5cccc(Cl)c5Cl)CC4)nn3)cc12`, the Ki was determined as 1500 nM at D(1A) dopamine receptor; 110 nM on D(2) dopamine receptor [2]; 51 nM at D(2) dopamine receptor [3]; 4.4 nM at D(3) dopamine receptor; 1400 nM at D(4) dopamine receptor; 15 nM in assay [1]. For the same compound, the EC50 at D(2) dopamine receptor [4] is 692 nM; on D(2) dopamine receptor [5], “Not Active”; on D(2) dopamine receptor [6], 1860 nM.
Consider `O=Cc1cnn2ccc(-n3cc(CCN4CCN(c5cccc(Cl)c5Cl)CC4)nn3)cc12`, for which the inhibitory constant (Ki) came out at 160 nM at D(1A) dopamine receptor; 11 nM at D(2) dopamine receptor [2]; 8 nM at D(2) dopamine receptor [3]; 32 nM on D(3) dopamine receptor; 3000 nM on D(4) dopamine receptor; 50 nM in [1]. Besides, the 50% effective concentration (EC50) was 200 nM at D(2) dopamine receptor [4], “Not Active” on D(2) dopamine receptor [5] and 3550 nM on D(2) dopamine receptor [6].
Consider `COc1ccccc1N1CCN(CCc2cn(-c3ccn4ncc(C=O)c4c3)nn2)CC1`, for which the Ki on D(1A) dopamine receptor turned out to be 620 nM; on D(2) dopamine receptor [2], 18 nM; on D(2) dopamine receptor [3], 9.4 nM; on D(3) dopamine receptor it was 8.5 nM; on D(4) dopamine receptor, 98 nM; in [1] it was 89 nM. In addition, the values for the concentration giving a half-maximal response (EC50) on D(2) dopamine receptor [4], at D(2) dopamine receptor [5] and on D(2) dopamine receptor [6] were 550 nM, “Not Active” and 4370 nM, respectively.
Turning to `Clc1cccc(N2CCN(CCc3cn(-c4ccn5nccc5c4)nn3)CC2)c1Cl`, the inhibition constant (Ki) at D(1A) dopamine receptor stood at 120 nM; at D(2) dopamine receptor [2] it was 22 nM; at D(2) dopamine receptor [3], 10 nM; on D(3) dopamine receptor it was 2.2 nM; at D(4) dopamine receptor, 180 nM; in [1] it was 7.1 nM. Further, the concentration giving a half-maximal response (EC50) at D(2) dopamine receptor [4] was 479 nM; on D(2) dopamine receptor [5], “Not Active”; on D(2) dopamine receptor [6], 1100 nM.
Regarding `Clc1cccc(N2CCN(CCCc3cn(-c4ccn5nccc5c4)nn3)CC2)c1Cl`, the Ki at D(1A) dopamine receptor worked out at 110 nM; on D(2) dopamine receptor [2], 130 nM; at D(2) dopamine receptor [3], 54 nM; at D(3) dopamine receptor, 8.5 nM; at D(4) dopamine receptor, 42 nM; in assay [1] it was 5.3 nM. In addition, the half-maximal effective concentration (EC50) on D(2) dopamine receptor [4] is 1120 nM; at D(2) dopamine receptor [5], “Not Active”.
Consider `Clc1cccc(N2CCN(CCCCc3cn(-c4ccn5nccc5c4)nn3)CC2)c1Cl`, for which the inhibitory constant (Ki) on D(1A) dopamine receptor was 110 nM; on D(2) dopamine receptor [2] it was 23 nM; at D(2) dopamine receptor [3] it was 7.3 nM; on D(3) dopamine receptor, 0.31 nM; at D(4) dopamine receptor, 76 nM; in assay [1], 0.64 nM. Moreover, the 50% effective concentration (EC50) on D(2) dopamine receptor [4] is 741 nM; on D(2) dopamine receptor [5], “Not Active”.
With `Cc1c(C(=O)NCCCCN2CCN(c3cccc(Cl)c3Cl)CC2)nnn1Cc1ccccc1`, the figures for the Ki (at D(2) dopamine receptor [2]; in assay [1]) were 14 nM and 7.4 nM, respectively.
`COc1ccccc1N1CCN(CCCCNC(=O)c2nnn(Cc3ccccc3Br)c2C)CC1`: the inhibition constant Ki was 17 nM at D(2) dopamine receptor [2] and 150 nM in assay [1].
In the case of `CCCc1c(C(=O)NCCCCN2CCN(c3ccccc3OC)CC2)nnn1Cc1ccccc1Br`, the values for the inhibition constant Ki (on D(2) dopamine receptor [2]; in [1]) were 3 nM and 44 nM, respectively.
The corresponding values for `CCCc1c(C(=O)NCCCCN2CCN(c3cccc(Cl)c3Cl)CC2)nnn1Cc1ccccc1` are 6.4 nM and 2.5 nM.
In [1], `COc1ccc(Cn2nnc(C(=O)NCCCCN3CCN(c4ccccc4OC)CC3)c2C)cc1` yielded an inhibition constant (Ki) of 140 nM.
